Laboratory results as given in PubChem BioAssay (NCI).
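The compound was tested at five concentrations on cells cultured in 96-well plates, with a 48-hour exposure period. GI50 = concentration required for 50% inhibition of growth. Definition used: TGI = concentration required for complete inhibition of growth.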

Legend:
Assay in all cases: DTP human tumour cell line panel, 48 h
786-0 renal = test system: 786-0 renal
A498 renal = test system: A498 renal
A549 NSCLC = test system: A549 NSCLC
ACHN renal = test system: ACHN renal
BT-549 breast = test system: BT-549 breast
CAKI-1 renal = test system: CAKI-1 renal
CCRF-CEM leukemia = test system: CCRF-CEM leukemia
COLO 205 colon = test system: COLO 205 colon
DU-145 prostate = test system: DU-145 prostate
EKVX NSCLC = test system: EKVX NSCLC
HCC-2998 colon = test system: HCC-2998 colon
HCT-116 colon = test system: HCT-116 colon
HCT-15 colon = test system: HCT-15 colon
HL-60(TB) leukemia = test system: HL-60(TB) leukemia
HOP-62 NSCLC = test system: HOP-62 NSCLC
HOP-92 NSCLC = test system: HOP-92 NSCLC
HS 578T breast = test system: HS 578T breast
HT29 colon = test system: HT29 colon
IGROV1 ovarian = test system: IGROV1 ovarian
K-562 leukemia = test system: K-562 leukemia
KM12 colon = test system: KM12 colon
LOX IMVI melanoma = test system: LOX IMVI melanoma
M14 melanoma = test system: M14 melanoma
MALME-3M melanoma = test system: MALME-3M melanoma
MCF7 breast = test system: MCF7 breast
MDA-MB-231 breast = test system: MDA-MB-231 breast
MDA-MB-435 = test system: MDA-MB-435
MOLT-4 leukemia = test system: MOLT-4 leukemia
NCI-H226 lung = test system: NCI-H226 lung
NCI-H23 lung = test system: NCI-H23 lung
NCI-H460 lung = test system: NCI-H460 lung
NCI-H522 lung = test system: NCI-H522 lung
NCI/ADR-RES ovarian = test system: NCI/ADR-RES ovarian
OVCAR-3 ovarian = test system: OVCAR-3 ovarian
OVCAR-4 ovarian = test system: OVCAR-4 ovarian
OVCAR-5 ovarian = test system: OVCAR-5 ovarian
OVCAR-8 ovarian = test system: OVCAR-8 ovarian
PC-3 prostate = test system: PC-3 prostate
RPMI-8226 leukemia = test system: RPMI-8226 leukemia
RXF 393 renal = test system: RXF 393 renal
SF-268 CNS = test system: SF-268 CNS
SF-295 CNS = test system: SF-295 CNS
SF-539 CNS = test system: SF-539 CNS
SK-MEL-2 melanoma = test system: SK-MEL-2 melanoma
SK-MEL-28 melanoma = test system: SK-MEL-28 melanoma
SK-MEL-5 melanoma = test system: SK-MEL-5 melanoma
SK-OV-3 ovarian = test system: SK-OV-3 ovarian
SN12C renal = test system: SN12C renal
SNB-19 CNS = test system: SNB-19 CNS
SNB-75 CNS = test system: SNB-75 CNS
SR leukemia = test system: SR leukemia
SW-620 colon = test system: SW-620 colon
T-47D breast = test system: T-47D breast
TK-10 renal = test system: TK-10 renal
U251 CNS = test system: U251 CNS
UACC-257 melanoma = test system: UACC-257 melanoma
UACC-62 melanoma = test system: UACC-62 melanoma
UO-31 renal = test system: UO-31 renal

Question: What does the source list for `Cc1c(C(N)=O)sc2c1C(=O)N(Cc1ccccc1)C1=NN=C(c3ccc(Cl)cc3)CN12`?
Answer: GI50 (786-0 renal): 2.65 µM; TGI (786-0 renal): 6.92 µM; GI50 (A498 renal): 2.88 µM; TGI (A498 renal): 12.7 µM; GI50 (A549 NSCLC): 3.57 µM; TGI (A549 NSCLC): 13.5 µM; GI50 (ACHN renal): 3.02 µM; TGI (ACHN renal): 11.6 µM; GI50 (BT-549 breast): 3.66 µM; TGI (BT-549 breast): 16.4 µM; GI50 (CAKI-1 renal): 1.17 µM; TGI (CAKI-1 renal): 10.3 µM; GI50 (CCRF-CEM leukemia): 1.49 µM; TGI (CCRF-CEM leukemia): 43.1 µM; GI50 (COLO 205 colon): 4.42 µM; TGI (COLO 205 colon): 16.9 µM; GI50 (DU-145 prostate): 3.44 µM; TGI (DU-145 prostate): 14.5 µM; GI50 (EKVX NSCLC): 4.7 µM; TGI (EKVX NSCLC): 29.8 µM; GI50 (HCC-2998 colon): 3.97 µM; TGI (HCC-2998 colon): 17 µM; GI50 (HCT-116 colon): 3.44 µM; TGI (HCT-116 colon): 14.5 µM; GI50 (HCT-15 colon): 0.688 µM; TGI (HCT-15 colon): 17.9 µM; GI50 (HL-60(TB) leukemia): 2.59 µM; TGI (HL-60(TB) leukemia): 46.1 µM; GI50 (HOP-62 NSCLC): 3.62 µM; TGI (HOP-62 NSCLC): 18.5 µM; GI50 (HOP-92 NSCLC): 3.89 µM; TGI (HOP-92 NSCLC): 14.7 µM; GI50 (HS 578T breast): 5.88 µM; TGI (HS 578T breast): 34.2 µM; GI50 (HT29 colon): 4.8 µM; TGI (HT29 colon): 16.1 µM; GI50 (IGROV1 ovarian): 3.13 µM; TGI (IGROV1 ovarian): 22.3 µM; GI50 (K-562 leukemia): 2.97 µM; TGI (K-562 leukemia): > 100 µM; GI50 (KM12 colon): 4.07 µM; TGI (KM12 colon): 16.6 µM; GI50 (LOX IMVI melanoma): 1.62 µM; TGI (LOX IMVI melanoma): 10.8 µM; GI50 (M14 melanoma): 2.38 µM; TGI (M14 melanoma): 6.75 µM; GI50 (MALME-3M melanoma): 3.29 µM; TGI (MALME-3M melanoma): 16.4 µM; GI50 (MCF7 breast): 3.59 µM; TGI (MCF7 breast): 14.9 µM; GI50 (MDA-MB-231 breast): 3.54 µM; TGI (MDA-MB-231 breast): 16 µM; GI50 (MDA-MB-435): 4.9 µM; TGI (MDA-MB-435): 26.1 µM; GI50 (MOLT-4 leukemia): 2.36 µM; TGI (MOLT-4 leukemia): 40.1 µM; GI50 (NCI-H226 lung): 2.49 µM; TGI (NCI-H226 lung): 11.8 µM; GI50 (NCI-H23 lung): 3.86 µM; TGI (NCI-H23 lung): 19.4 µM; GI50 (NCI-H460 lung): 2.13 µM; TGI (NCI-H460 lung): 7.69 µM; GI50 (NCI-H522 lung): 3.19 µM; TGI (NCI-H522 lung): 13.2 µM; GI50 (NCI/ADR-RES ovarian): 1.76 µM; TGI (NCI/ADR-RES ovarian): 11.3 µM; GI50 (OVCAR-3 ovarian): 3.75 µM; TGI (OVCAR-3 ovarian): 16.4 µM; GI50 (OVCAR-4 ovarian): 2.81 µM; TGI (OVCAR-4 ovarian): 15.8 µM; GI50 (OVCAR-5 ovarian): 8.47 µM; TGI (OVCAR-5 ovarian): 21.1 µM; GI50 (OVCAR-8 ovarian): 2.97 µM; TGI (OVCAR-8 ovarian): 15.2 µM; GI50 (PC-3 prostate): 3.84 µM; TGI (PC-3 prostate): 20.9 µM; GI50 (RPMI-8226 leukemia): 4.56 µM; TGI (RPMI-8226 leukemia): > 100 µM; GI50 (RXF 393 renal): 2.16 µM; TGI (RXF 393 renal): 7.71 µM; GI50 (SF-268 CNS): 2.63 µM; TGI (SF-268 CNS): 14.1 µM; GI50 (SF-295 CNS): 2.31 µM; TGI (SF-295 CNS): 14.7 µM; GI50 (SF-539 CNS): 3.39 µM; TGI (SF-539 CNS): 11 µM; GI50 (SK-MEL-2 melanoma): 6.1 µM; TGI (SK-MEL-2 melanoma): 18.6 µM; GI50 (SK-MEL-28 melanoma): 5.67 µM; TGI (SK-MEL-28 melanoma): 18.5 µM; GI50 (SK-MEL-5 melanoma): 1.84 µM; TGI (SK-MEL-5 melanoma): 4.76 µM; GI50 (SK-OV-3 ovarian): 3.71 µM; TGI (SK-OV-3 ovarian): 15.8 µM; GI50 (SN12C renal): 3.42 µM; TGI (SN12C renal): 15.6 µM; GI50 (SNB-19 CNS): 3.71 µM; TGI (SNB-19 CNS): 16.1 µM; GI50 (SNB-75 CNS): 10.6 µM; TGI (SNB-75 CNS): 23.7 µM; GI50 (SR leukemia): 3.14 µM; TGI (SR leukemia): 50.7 µM; GI50 (SW-620 colon): 3.99 µM; TGI (SW-620 colon): 18.4 µM; GI50 (T-47D breast): 3.82 µM; TGI (T-47D breast): 16.4 µM; GI50 (TK-10 renal): 6.52 µM; TGI (TK-10 renal): 18.9 µM; GI50 (U251 CNS): 2.39 µM; TGI (U251 CNS): 13.2 µM; GI50 (UACC-257 melanoma): 3.75 µM; TGI (UACC-257 melanoma): 16.5 µM; GI50 (UACC-62 melanoma): 2.23 µM; TGI (UACC-62 melanoma): 5.9 µM; GI50 (UO-31 renal): 2.24 µM; TGI (UO-31 renal): 15.3 µM
